Holding throughout (assay type): in vivo
Series [1] is described as follows: Acute Toxicity Study (LD0). As to conditions: mice, oral administration. An excerpt:
The result obtained was LD0 in mg/kg =200.

Series [2] can be described thus: Asphysic Anoxemia Test (electroencephalogram survival). Conditions: mice, curare, 2 mg/kg, respiratory assistance stopped; for increase in the time necessary for the electroencephalogram to disappear: vs control animals. The procedure: Curare was administered to mice which were placed under assisted respiration and the products to be tested were administered at a dose of 2 mg/kg, and the respiratory assistance was stopped.

A short description of series [3]: Hypobaric Anoxemia Test. Conditions: male mice, 15 min before 190 mm Hg, vs control animals. The procedure:
Male mice weighing 20-22 g were used having eaten nothing for 5 hours and they were divided into groups of 10 animals. The product to be tested was administered to the animals subcutaneously. […] The increase in the survival time, expressed as a percentage was calculated for the treated animals in comparison with control animals submitted to the same conditions.

For series [4], the system named is enolase γγ. The series can be described thus: Enolase Test (kainic acid-induced neuron lesion). As to conditions: mice, 1 mg/kg intraperitoneally. As for the experimental part:
Injured cerebral cells release enolase γγ which is a specific indicator of neuron lesion. In this test, the lesions were induced in the mice by sub-cutaneous injection of 35 mg/kg of kainic acid.

Consider `CSC[C@@H]1C[C@@H]2c3cccc4[nH]cc(c34)C[C@H]2N(C)C1` [Product A, 6-methyl-8β-(methylthiomethyl)-ergoline], for which the “LD0 (maximum dose which did not cause mortality in 8 days)” value in series [1] is on record as 200 mg/kg. In series [2], the electro-encephalographic survival result is on record as “prolong the electro-encephalographic survival” and the “increase in the time necessary for the electroencephalogram to disappear” value is recorded as 10%. The “% Increase in the survival time” value in series [3] (1 mg/kg subcutaneously) came out at 12%. In addition, the “% Increase in the survival time” value in series [3] (10 mg/kg subcutaneously) worked out at 57%. Moreover, in series [4] (1 hour before 35 mg/kg s.c. kainic acid), the “decrease in the serous concentration of enolase” value was 29%. The “protection of cerebral cells in the affected area” value in series [4] (1 hour before kainic acid) was “protected the cerebral cells in the affected area”.
As to `CSC[C@@H]1C=C2c3cccc4[nH]cc(c34)C[C@H]2N(C)C1` [Product B, 6-methyl-8β-methylthiomethyl-9,10-didehydroergoline], in series [2], the electro-encephalographic survival entry is given as “prolong the electro-encephalographic survival” and the “increase in the time necessary for the electroencephalogram to disappear” value was determined as 11%.
